Data taken from article PMC9321043, “Synthesis, Structure–Activity Relationships, and Parasitological Profiling of Brussonol Derivatives as New Plasmodium falciparum Inhibitors” (Pharmaceuticals, 2022).
“And” between values parts separate entries of the source, which are not always exact repeats. Identical values can stand only once.

How the values were obtained:
P. knowlesi = assay: In vitro evaluation against P. knowlesi, NanoLuc luminescence; format: cell-based; conditions: Plasmodium knowlesi, 40 h
Description: The P. falciparum strains were cultivated in human blood cells (hRBC) O^+, while P. knowlesi was cultivated in rhesus red blood cells (rRBC) as described. P. falciparum complete RPMI (consisting of RPMI-1640, supplemented with 0.2% NaHCO3, 25 mM HEPES (pH 7.4), 11 mM D-glucose, 10 mg/L hypoxanthine, 25 mg/L gentamicin, and 0.5% (m/v) AlbuMAX II). The parasitemias of these cultures were maintained below 10% with 2.5% hematocrit. P. knowlesi complete RPMI (consisting of RPMI-1640 supplemented with 25 mM HEPES, […] hypoxanthine, 0.26% NaHCO3, 10 mg/L gentamicin, and 1% Albumax II). This culture was maintained with RBCs up to 5% hematocrit. The culture medium was changed daily, and all cultures were maintained under a 90% N2/5% CO2/5% O2 gas mixture at 37 °C. All compounds were purchased from Sigma-Aldrich (Cotia, Brazil).
Blood-stage P. knowlesi cultures were diluted to 0.5% parasitemia and brought to 2% hematocrit for growth in 96-well plates containing the desired drug concentration series (200 µL of culture/well). […] Parasite growth in the plates was measured by luminescence (NanoLuc method). […] The plates were then incubated for 3 min at room temperature and the luminescence was assessed using a plate luminometer (Molecular Devices, San Jose, CA, USA) with 1 s integration time. Luminescence readings were normalized to values from control wells containing no drug. […]

P. falciparum [1] = assay: In vitro combination with artesunate, fixed-ratio isobologram; format: cell-based, Plasmodium falciparum
Source text: A drug combination investigation is important to assess whether the combination of the tested compound with a known antimalarial drug is advantageous or not. In this assay, a fixed molar ratio was used to assess the combination profile of brussonol and artesunate. The range of concentrations tested was based on the assessed IC50 values of both the compounds previously determined. In this method, we first determined the additive isobole, which defined the range of IC50 values pairs to be attributed to an additive (neutral) character of combination. Next, the combination pairs were plotted. Data points distributed below or above the additive isobole indicate a synergic or antagonistic profile, respectively.
This assay was adapted from the work done by Fivelman and collaborators (2004). Consideration of additivity ranges was included in the analysis, as described by Grabovsky and Tallarida (2004). Brussonol and artesunate were diluted and combined in a 96-well plate in […] fixed-ratio combinations (1:0, 6:1, 5:2, 4:3, 3:4, 2:5, 1:6, 0:1). Starting concentrations were 6× IC50 for both compounds. […] The absolute IC50s of brussonol and artesunate (proportions 1:0 and 0:1), the partial IC50s (IC50^brussonol and IC50^artesunate) for each combination (6:1, 5:2, 4:3, 3:4, 2:5, 1:6), and the fractional inhibitory concentrations for each combination were determined.

P. falciparum [2] = assay: Speed-of-action assay; format: cell-based, Plasmodium falciparum
Description: The speed-of-action assay assesses the inhibitory activity of the tested compounds after 24, 48, and 72 h of drug exposure. […] Moreover, to confirm the speed-of-action, the morphological development of the parasite in parallel with the IC50 assessment was verified. The parasites in the negative control wells developed according to the expected timeline (Figure 5a). […] Brussonol caused parasite death within the first 24 h of incubation as observed for artesunate (Figure 5a).
In this method, three 96-well plates were prepared by adding 180 µL of the parasite’s inoculum with 0.5% parasitemia and 2% hematocrit. A serial dilution of the compounds was added to each plate; the starting concentration for brussonol was 6× IC50, while for artesunate and pyrimethamine (fast- and slow-acting controls, respectively) were 10× IC50. In addition, a positive and negative control, which corresponded to parasite cultures with no addition of inhibitor and non-parasitized erythrocytes, respectively, were used for the parasite’s control growth. Each plate was treated for a different period (24, 48, or 72 h), and the first two plates were washed twice with fresh medium to remove the inhibitor, followed by incubation of 48 and 24 h, respectively. […] A statistical analysis using a one-way ANOVA test was done to compare each time point using GraphPad Prism version 8.0.1 for Windows, GraphPad Software, San Diego, California USA, www.graphpad.com, accessed on 1 February 2022. In parallel, the morphological development of the parasite under the compounds’ pressure was assessed by adding the compounds tested at the highest concentration evaluated. Blood smears of each well were made and stained at time points 0, 24, 48, and 72 h.

CC(C)c1cc2c(c(O)c1O)C[C@@]13CCCC(C)(C)[C@@H]1C[C@@H]2O3 [Compound 1, brussonol]
IC50 (P. knowlesi): 20 ± 4 µM | sum of fractional inhibitory concentrations (FICindex) (P. falciparum [1]; brussonol combined with artesunate, proportion 1:1 respective to each IC50): ~ 1 and 1.1 ± 0.1 | combination profile with artesunate (P. falciparum [1]; isobologram, fixed-ratio combinations): additive effect | speed of action (P. falciparum [2]; IC50 compared after 24, 48 and 72 h of drug exposure): fast-acting in vitro inhibition | time of parasite death (morphological development, pyknotic nuclei) (P. falciparum [2]; highest concentration evaluated, Giemsa smears at 0, 24, 48, 72 h): ≤ 24 h
